Test results taken from patent US10537566B2, “Combinations comprising siponimod and laquinimod for the treatment of multiple sclerosis” (Novartis AG, priority 2014, dated 2020).
Read-outs that look alike come from different tables or passages of the source.

Key:
[1] = Level of siponimod in blood, brain and cerebrospinal fluid (CSF) in mice; format: in vivo; conditions: female, mouse, C57Bl/6 mice, mean (SEM)
Protocol: Female C57Bl/6 mice were treated daily with 3 mg/kg siponimod, p.o. for 8 days. 8 hours after the last administration, animals were sacrificed and the levels of siponimod were measured in blood, brain and CSF.
Shown are mean values of 3-5 animals and standard error of the mean (in brackets).

lymphocytes = test: Lymphocyte reduction in MOG/CFA/Pertussis toxin-immunized C57/Bl6 mice; format: in vivo, C57Bl/6 mice; conditions: 0.3 mg/kg siponimod, 10 mg/kg laquinimod or both, daily for 29 days, from three days after first clinical symptoms; p<0.05
Protocol: Female C57Bl/6 mice were subcutaneously immunized with 200 μg recombinant MOG1-125 in CFA followed by one i.p. injection of 100 ng Pertussis toxin. Two days later an additional i.p. injection of 100 ng pertussis toxin was administered. Three days after the first clinical symptoms, the mice were randomized to either vehicle, 0.3 mg/kg siponimod, 10 mg/kg laquinimod or 0.3 mg/kg siponimod+10 mg/kg laquinimod and treated daily with said doses for 29 days. The MOG/CFA/Pertussis toxin-induced experimental autoimmune encephalomyelitis model in C57/Bl6 mice is described in Quancard et al (Chem Biol. 19(9):1142-51, 2012).

[2] = test system: experimental autoimmune encephalomyelitis (EAE); test: MOG/CFA/Pertussis toxin-induced EAE, treatment initiated after severe CNS damage; format: in vivo, C57Bl/6 mice; conditions: 0.3 mg/kg siponimod, 10 mg/kg laquinimod or both, daily for 30 days, from three days after first clinical symptoms; p<0.05
Protocol: Female C57Bl/6 mice were subcutaneously immunized with 200 μg recombinant MOG1-125 in CFA followed by one i.p. injection of 100 ng Pertussis toxin. Two days later an additional i.p. injection of 100 ng pertussis toxin was administered. Three days after the first clinical symptoms, the mice were randomized to either vehicle, 0.3 mg/kg siponimod, 10 mg/kg laquinimod or 0.3 mg/kg siponimod+10 mg/kg laquinimod and treated daily with said doses for 30 days. Treatment initiated after severe CNSneurological disease and tissue damage has occurred. More specifically after that a severe CNS damage, which can be characterized by hind limb paralysis, had already occurred.

[3] = test system: experimental autoimmune encephalomyelitis (EAE); test: MOG/CFA/Pertussis toxin-induced EAE, treatment initiated during ongoing CNS damage; format: in vivo, C57Bl/6 mice; conditions: 0.3 mg/kg siponimod, 10 mg/kg laquinimod or both, daily for 21 days after infiltration of immune cells into CNS; p<0.05
Protocol: Female C57Bl/6 mice were subcutaneously immunized with 200 μg recombinant MOG1-125 in CFA followed by one i.p. injection of 100 ng Pertussis toxin. Two days later an additional i.p. injection of 100 ng pertussis toxin was administered. Following infiltration of immune cells into the CNS to initiate tissue damage, the mice were randomized to either vehicle, 0.3 mg/kg siponimod, 10 mg/kg laquinimod or 0.3 mg/kg siponimod+10 mg/kg laquinimod and treated daily with said doses for 21 days.

RRMS [4] = conditions: phase II, oral doses of 0.25 mg, 0.5 mg, 1.25 mg, 2 mg and 10 mg; cited from earlier work
RRMS [5] = conditions: phase III, oral 0.6 mg once daily over 24 months; cited from earlier work

| SMILES | concentration at 8 h ([1]; CSF, oral, EAE, 3 mg/kg qd, day 8, 8 h, read-out: conc siponimod (nM) (SEM) CSF) | concentration at 8 h ([1]; CSF, po, 3 mg/kg qd p.o., day 8, 8 h after last administration, read-out: conc siponimod (nM) (SEM) CSF) | concentration at 8 h ([1]; blood, oral, EAE, 3 mg/kg qd, day 8, 8 h, read-out: conc siponimod (nM) (SEM) Blood) | concentration at 8 h ([1]; blood, po, 3 mg/kg qd p.o., day 8, 8 h after last administration, read-out: conc siponimod (nM) (SEM) Blood) | concentration at 8 h ([1]; brain, oral, EAE, 3 mg/kg qd, day 8, 8 h, read-out: conc siponimod (nM) (SEM) Brain) | concentration at 8 h ([1]; brain, po, 3 mg/kg qd p.o., day 8, 8 h after last administration, read-out: conc siponimod (nM) (SEM) Brain) | effect on lymphocytes (FIG. 1) (lymphocytes) | disease burden (cumulative EAE score) (FIG. 2) [2] | daily disease severity / neurological paralysis / disease burden (FIG. 4) [3] | efficacy in treating RRMS (RRMS [4]) | efficacy in treating RRMS (RRMS [5]) |
| --- | --- | --- | --- | --- | --- | --- | --- | --- | --- | --- | --- |
| CCc1cc(/C(C)=N/OCc2ccc(C3CCCCC3)c(C(F)(F)F)c2)ccc1CN1CC(C(=O)O)C1 [siponimod, 1-{4-[1-((E)-4-cyclohexyl-3-trifluoromethyl-benzyloxyimino)-ethyl]-2-ethyl-benzyl}-azetidine-3-carboxylic acid] | 17.7 | 7.2 | 1600 | 973 | 9190 | 5550 | reduced lymphocytes | reduced disease burden | transiently reduced neurological paralysis | dose-dependent efficacy |  |
| CCN(C(=O)c1c(O)c2c(Cl)cccc2n(C)c1=O)c1ccccc1 [laquinimod, 5-chloro-N-ethyl-4-hydroxy-1-methyl-2-oxo-N-phenyl-1,2-dihydroquinoline-3-carboxamide] |  |  |  |  |  |  | did not significantly reduce lymphocytes | did not significantly improve disease burden | did not significantly improve daily disease severity |  | showed efficacy |
